Data taken from ChEMBL document CHEMBL5214976, “Design, synthesis and anti-tumor activity studies of novel pyrido[3, 4-d]pyrimidine derivatives” (Bioorg Med Chem Lett, 2022).
Active and inactive are the calls of the source. No cut-off for these calls is given here.

Columns and labels:
PC-3 = test: Antitumor activity against human PC-3 cells assessed as inhibition of cell proliferation incubated for 72 hrs by MTT assay; type: functional, cell-based; details: PC-3, 72 h
MGC-803 [1] = test: Antitumor activity human MGC-803 cells assessed as inhibition of cell proliferation incubated for 72 hrs by MTT assay; type: functional, cell-based; details: MGC-803, 72 h
HepG2 [2] = test: Antitumor activity human HepG2 cells assessed as inhibition of cell proliferation incubated for 72 hrs by MTT assay; type: functional, cell-based; details: HepG2, 72 h
MGC-803 [3] = test: Induction of apoptosis in human MGC-803 cells assessed as viable cells at 0.25 uM by Annexin V-FITC/PI staining based flow cytometric analysis (reference value: 95.0 %); type: functional; details: read-out: Activity
MGC-803 [4] = test: Induction of apoptosis in human MGC-803 cells assessed as viable cells at 0.5 uM by Annexin V-FITC/PI staining based flow cytometric analysis (reference value: 95.0 %); type: functional; details: read-out: Activity
MGC-803 [5] = test: Induction of apoptosis in human MGC-803 cells assessed as early apoptotic cells at 0.5 uM by Annexin V-FITC/PI staining based flow cytometric analysis (reference value: 1.8 %); type: functional
MGC-803 [6] = test: Induction of apoptosis in human MGC-803 cells assessed as early apoptotic cells at 0.25 uM by Annexin V-FITC/PI staining based flow cytometric analysis (reference value: 1.8 %); type: functional
MGC-803 [7] = test: Induction of apoptosis in human MGC-803 cells assessed as necrotic cells at 0.5 uM by Annexin V-FITC/PI staining based flow cytometric analysis (reference value: 0.4 %); type: functional
MGC-803 [8] = test: Induction of apoptosis in human MGC-803 cells assessed as necrotic cells at 0.75 uM by Annexin V-FITC/PI staining based flow cytometric analysis (reference value: 0.4 %); type: functional
MGC-803 [9] = test: Induction of apoptosis in human MGC-803 cells assessed as late apoptotic cells at 0.75 uM by Annexin V-FITC/PI staining based flow cytometric analysis (reference value: 2.8 %); type: functional
MGC-803 [10] = test: Induction of apoptosis in human MGC-803 cells assessed as early apoptotic cells at 0.75 uM by Annexin V-FITC/PI staining based flow cytometric analysis (reference value: 1.8 %); type: functional
MGC-803 [11] = test: Induction of apoptosis in human MGC-803 cells assessed as increase in PARP protein expression by Western blot analysis; type: functional, cell-based; details: dose 0.25-0.75 µM, DDE = dose-dependent effect
MGC-803 [12] = test: Induction of apoptosis in human MGC-803 cells assessed as late apoptotic cells at 0.25 uM by Annexin V-FITC/PI staining based flow cytometric analysis (reference value: 2.8 %); type: functional
MGC-803 [13] = test: Induction of apoptosis in human MGC-803 cells assessed as necrotic cells at 0.25 uM by Annexin V-FITC/PI staining based flow cytometric analysis (reference value: 0.4 %); type: functional
MGC-803 [14] = test: Induction of apoptosis in human MGC-803 cells assessed as late apoptotic cells at 0.5 uM by Annexin V-FITC/PI staining based flow cytometric analysis (reference value: 2.8 %); type: functional
MGC-803 [15] = test: Induction of apoptosis in human MGC-803 cells assessed as total apoptotic cells at 0.25 uM by Annexin V-FITC/PI staining based flow cytometric analysis (reference value: 4.6%); type: functional
MGC-803 [16] = test: Induction of apoptosis in human MGC-803 cells assessed as total apoptotic cells at 0.75 uM by Annexin V-FITC/PI staining based flow cytometric analysis (reference value: 4.6%); type: functional
MGC-803 [17] = test: Induction of apoptosis in human MGC-803 cells assessed as increase in Bid protein expression by Western blot analysis; type: functional, cell-based; details: dose 0.25-0.75 µM, DDE = dose-dependent effect
MGC-803 [18] = test: Induction of apoptosis in human MGC-803 cells assessed as total apoptotic cells at 0.5 uM by Annexin V-FITC/PI staining based flow cytometric analysis (reference value: 4.6%); type: functional
MGC-803 [19] = test: Induction of apoptosis in human MGC-803 cells assessed as viable cells at 0.75 uM by Annexin V-FITC/PI staining based flow cytometric analysis (reference value: 95.0 %); type: functional; details: read-out: Activity
MGC-803 [20] = test: Induction of cell cycle arrest in human MGC-803 cells assessed as accumulation of cells at G1/S phase by measuring decrease in CycD1 protein expression at 0.25 to 0.75 uM by Western blot analysis; type: functional, cell-based; details: dose 0.25-0.75 µM
MGC-803 [21] = test: Antiproliferative activity against human MGC-803 cells assessed as inhibition of cell proliferation incubated for 48 hrs by MTT assay; type: functional, cell-based; details: MGC-803, 48 h
MGC-803 [22] = test: Potency index, ratio of 5-fluorouracil IC50 to test compound IC50 for antiproliferative activity against human MGC-803 cells assessed as inhibition of cell proliferation incubated for 72 hrs by MTT assay; type: functional
HepG2 [23] = test: Potency index, ratio of 5-fluorouracil IC50 to test compound IC50 for antiproliferative activity against human HepG2 cells assessed as inhibition of cell proliferation incubated for 72 hrs by MTT assay; type: functional

SMILES | IC50 (PC-3) | IC50 (MGC-803 [1]) | IC50 (HepG2 [2]) | further results
C#CCSc1nc(Nc2ccc(Cl)cc2)c2ccncc2n1 | 19 µM | 16.4 µM | 36.7 µM | –
C#CCSc1nc(NCCC#N)c2ccncc2n1 | > 80 µM | > 80 µM | > 80 µM | –
CCSc1nc(Nc2cccc(OC)c2)c2ccncc2n1 | 7.15 µM | 0.59 µM | 10.7 µM | viability at 0.25 µM (MGC-803 [3]): 90%; viability at 0.5 µM (MGC-803 [4]): 71.9%; Activity (MGC-803 [5]): 16%; Activity (MGC-803 [6]): 6.8%; Activity (MGC-803 [7]): 0.5%; Activity (MGC-803 [8]): 0.2%; Activity (MGC-803 [9]): 36.8%; Activity (MGC-803 [10]): 38.9%; Activity (MGC-803 [11]): Dde; Activity (MGC-803 [12]): 3%; Activity (MGC-803 [13]): 0.2%; Activity (MGC-803 [14]): 11.6%; Activity (MGC-803 [15]): 9.8%; Activity (MGC-803 [16]): 75.7%; Activity (MGC-803 [17]): Dde; Activity (MGC-803 [18]): 27.6%; viability at 0.75 µM (MGC-803 [19]): 24.1%; Activity (MGC-803 [20]): Active
C#CCSc1nc(N2CCN(Cc3ccccc3)CC2)c2ccncc2n1 | > 80 µM | > 80 µM | > 80 µM | –
Cc1cc(Cc2nc(C)c3ccccc3n2)n2ncnc2n1 | – | – | – | IC50 (MGC-803 [21]): 8.28 µM
C#CCSc1nc(Nc2cccc(Cl)c2)c2ccncc2n1 | 56.5 µM | 2.19 µM | 1.09 µM | –
C#CCSc1nc(Nc2cccc(OC)c2)c2ccncc2n1 | 17.1 µM | 2.07 µM | 0.92 µM | Ratio IC50 (MGC-803 [22]): 3; Ratio IC50 (HepG2 [23]): 30
C#CCSc1nc(Nc2ccccc2)c2ccncc2n1 | > 80 µM | 16.2 µM | 29.4 µM | –
C#CCSc1nc(N2CCN(C)CC2)c2ccncc2n1 | > 80 µM | > 80 µM | > 80 µM | –
C#CCSc1nc(N2CCSCC2)c2ccncc2n1 | > 80 µM | > 80 µM | > 80 µM | –
O=c1[nH]cc(F)c(=O)[nH]1 [FLUOROURACIL] | 15.1 µM | 7.21 µM | 29.8 µM | –
C/C=C/Sc1nc(Nc2cccc(OC)c2)c2ccncc2n1 | 6.79 µM | 1.03 µM | 18.1 µM | –
COc1cccc(Nc2nc(SCC3CC3)nc3cnccc23)c1 | 14.8 µM | 1.34 µM | 24.9 µM | –
C#CCSc1nc(Nc2ccc(F)cc2)c2ccncc2n1 | 17.3 µM | 15.8 µM | 10.8 µM | –
C#CCSc1nc(N2CCN(C(=O)OC(C)(C)C)CC2)c2ccncc2n1 | 47.5 µM | > 80 µM | 55.9 µM | –
C#CCSc1nc(Nc2ccc(O)cc2)c2ccncc2n1 | > 80 µM | > 80 µM | > 80 µM | –

SMILES | IC50 (PC-3) | IC50 (MGC-803 [1]) | IC50 (HepG2 [2]) | further results
C#CCSc1nc(Nc2ccc(OC)cc2)c2ccncc2n1 | 15.1 µM | > 80 µM | > 80 µM | –
C#CCSc1nc(Nc2ccc([N+](=O)[O-])cc2)c2ccncc2n1 | > 80 µM | > 80 µM | > 80 µM | –
C#CCSc1nc(Nc2ccccc2OC)c2ccncc2n1 | > 80 µM | 3.44 µM | 4.53 µM | –
C#CCSc1nc(Nc2cc(OC)c(OC)c(OC)c2)c2ccncc2n1 | 30.7 µM | 5.68 µM | 14.2 µM | –
C#CCSc1nc(N2CCN(CC)CC2)c2ccncc2n1 | > 80 µM | 70.6 µM | > 80 µM | –
C#CCSc1nc(Nc2ccc(Cl)cc2Cl)c2ccncc2n1 | 30.4 µM | 25.5 µM | 11 µM | –
C#CCSc1nc(Nc2ccccc2O)c2ccncc2n1 | 18.7 µM | 21 µM | > 80 µM | –
C#CCSc1nc(Nc2ccc(Br)cc2)c2ccncc2n1 | 26 µM | 26 µM | 56.2 µM | –
COc1cccc(Nc2nc(SCC3CCCCC3)nc3cnccc23)c1 | 27.5 µM | 23.7 µM | 32.8 µM | –
CCCSc1nc(Nc2cccc(OC)c2)c2ccncc2n1 | 15.3 µM | 1.95 µM | 17.3 µM | –
C#CCSc1nc(Nc2cccc(O)c2)c2ccncc2n1 | > 80 µM | 15.7 µM | 29.5 µM | –
C#CCSc1nc(Nc2ccc(C)cc2)c2ccncc2n1 | 15.7 µM | 8.09 µM | 6.17 µM | –
C#CCSc1nc(Nc2ccccc2Cl)c2ccncc2n1 | > 80 µM | 27.6 µM | 17.2 µM | –
C#CCSc1nc(N2CCOCC2)c2ccncc2n1 | > 80 µM | > 80 µM | > 80 µM | –
C#CCSc1nc(NCCC(C)C)c2ccncc2n1 | > 80 µM | > 80 µM | > 80 µM | –
